pIC50: −log10 of the molar value.
Experiments:
human LFA-1 = molecular target: T1, human LFA-1 (Homo sapiens, UniProt P20701); assay: Cell free assay: binding of soluble human ICAM-1 to immobilized human LFA-1
T1 construct: endogenous in cells; host or cells: JY cells (human lymphoblastoid B cell line)
Protocol: A. In Vitro: Cell Free Assay
The assay measures the binding of soluble human ICAM-1 to immobilized human LFA-1. LFA-1 is purified from JY cells, a human lymphoblastoid B cell-line, by immunoaffinity chromatography as described by Dustin et al. (J. Immunol. 148, 2654-2663, 1992). ICAM-1 mouse Cκ fusion protein (ICAM-1) is produced using the baculovirus system as described by Weitz-Schmidt et al. (Anal. Biochem.238, 184-190, 1996).
Purified LFA-1 is diluted 1:20 in phosphate buffered saline (PBS) containing 2 mM MgCl2, pH 7.4 and coated onto microtitre plates (Nunc) at 37° C. for 3 h. Plates are blocked with 1% heat-treated BSA in PBS for 2 hours at 37° C. followed by a washing step using PBS, 2 mM MgCl2, 1% fetal calf serum, pH 7.4 (assay buffer). Compounds dissolved at 10 mM in DMSO are diluted in assay buffer and added to the plates. Biotinylated recombinant ICAM-1 in assay buffer (6 μg/ml) is added and allowed to bind at 37° C. for one hour. After incubation, wells are washed with assay buffer. Streptavidin-peroxidase diluted 1:5000 in assay buffer is added and incubated for 45 min at 37° C. Plates are then washed with assay buffer and 2,2′-azino-bis(3-ethylbenzothiazoline-6 sulfonic acid) diammonium salt substrate solution is added to each well. The reaction is stopped after 20 min and bound ICAM-1 is determined by measuring the optical density at 405 nm in a microplate reader.

[1] = test system: mBSA antigen-induced arthritis; assay: Mouse antigen-induced arthritis model; type: in vivo, OFA-1 mice; conditions: about 0.3 to 30 mg/kg p.o.
Protocol: iv) Mouse Antigen-induced Arthritis Model The test for rheumatoid arthritis is carried out by a modification of that described by Van de Loo et al., Arthritis Rheum. 1995; 35:164-172, e.g., as follows: Female OFA-1 mice are sensitised intradermally on the back at two sites to methylated bovine serum albumin (mBSA) homogenised 1:1 with complete Freund's adjuvant on days −21 and −14 (0.1 ml containing 1 mg/ml mBSA). On day 0, the right knee receives 10 μl of 10 mg/ml mBSA in 5% glucose solution (antigen injected knee), while the left knee receives 10 μl of 5% glucose solution alone (vehicle injected knee). The diameters of the left and right knees are then measured using calipers immediately after the intra-articular injections and again on days 2, 4, 7, 9, 11 and 14. […] Right knee swelling is calculated as a ratio of left knee swelling, and the R/L knee swelling ratio plotted against time to give Area Under the Curve (AUC) graphs for control and treatment groups. The percentage inhibition of the individual treatment group AUCs are calculated vs the control group AUC (0% inhibition) using an Excel spreadsheet. […] After staining, the slides are number coded as left knee/right knee pairs from each animal and scored in a blinded fashion for inflammatory cell infiltrate/hyperplasia, joint damage/erosions and cartilage proteoglycan loss.

carrageenan paw swelling = assay: Rat carrageenan edema model; type: in vivo, OFA rats; conditions: about 0.3 to 30 mg/kg p.o.
Protocol: iii) Rat Carrageenan Edema Model Male OFA rats are treated orally with the compound to be tested or vehicle (saline). One to three hours later (0 hours) the rats receive a 100 μl intra-plantar injection of a 1% w/v carrageenan solution in 0.9% saline in the hind paw and the diameter of the paw is measured by means of a micro-calliper. The paw diameter measurements are repeated at times +3 and +5 hours after injection of the carrageenan.

T1 sequence (P20701 26-1170): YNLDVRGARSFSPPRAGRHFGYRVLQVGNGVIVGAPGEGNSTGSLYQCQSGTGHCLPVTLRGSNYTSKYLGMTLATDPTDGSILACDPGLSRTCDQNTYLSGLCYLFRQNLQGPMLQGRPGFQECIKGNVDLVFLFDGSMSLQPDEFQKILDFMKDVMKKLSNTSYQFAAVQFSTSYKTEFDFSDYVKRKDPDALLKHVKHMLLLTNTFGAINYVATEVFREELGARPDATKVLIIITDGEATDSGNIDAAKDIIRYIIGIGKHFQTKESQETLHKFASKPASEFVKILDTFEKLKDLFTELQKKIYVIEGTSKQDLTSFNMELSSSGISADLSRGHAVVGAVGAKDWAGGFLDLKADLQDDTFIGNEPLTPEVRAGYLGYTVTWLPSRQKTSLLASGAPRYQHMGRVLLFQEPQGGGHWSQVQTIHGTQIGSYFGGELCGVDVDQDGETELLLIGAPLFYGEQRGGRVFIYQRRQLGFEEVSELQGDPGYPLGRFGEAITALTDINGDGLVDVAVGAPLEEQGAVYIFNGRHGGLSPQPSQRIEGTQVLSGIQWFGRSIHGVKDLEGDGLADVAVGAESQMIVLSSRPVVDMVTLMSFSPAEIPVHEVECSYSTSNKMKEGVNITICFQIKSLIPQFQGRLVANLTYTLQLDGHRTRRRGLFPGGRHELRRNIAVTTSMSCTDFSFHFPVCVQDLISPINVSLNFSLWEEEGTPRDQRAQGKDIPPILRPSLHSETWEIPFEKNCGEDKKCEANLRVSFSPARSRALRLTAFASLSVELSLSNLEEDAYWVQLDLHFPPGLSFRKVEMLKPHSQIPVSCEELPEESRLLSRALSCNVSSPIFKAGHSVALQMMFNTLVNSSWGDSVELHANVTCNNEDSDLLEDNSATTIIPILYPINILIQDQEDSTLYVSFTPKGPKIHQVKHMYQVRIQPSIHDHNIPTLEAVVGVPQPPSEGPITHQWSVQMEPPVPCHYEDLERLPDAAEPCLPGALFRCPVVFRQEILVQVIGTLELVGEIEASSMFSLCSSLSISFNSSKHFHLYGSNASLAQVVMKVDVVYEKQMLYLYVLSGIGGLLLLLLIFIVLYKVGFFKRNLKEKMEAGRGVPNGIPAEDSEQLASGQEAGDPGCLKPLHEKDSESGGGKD
T1 sequence (P05107 23-769 partner): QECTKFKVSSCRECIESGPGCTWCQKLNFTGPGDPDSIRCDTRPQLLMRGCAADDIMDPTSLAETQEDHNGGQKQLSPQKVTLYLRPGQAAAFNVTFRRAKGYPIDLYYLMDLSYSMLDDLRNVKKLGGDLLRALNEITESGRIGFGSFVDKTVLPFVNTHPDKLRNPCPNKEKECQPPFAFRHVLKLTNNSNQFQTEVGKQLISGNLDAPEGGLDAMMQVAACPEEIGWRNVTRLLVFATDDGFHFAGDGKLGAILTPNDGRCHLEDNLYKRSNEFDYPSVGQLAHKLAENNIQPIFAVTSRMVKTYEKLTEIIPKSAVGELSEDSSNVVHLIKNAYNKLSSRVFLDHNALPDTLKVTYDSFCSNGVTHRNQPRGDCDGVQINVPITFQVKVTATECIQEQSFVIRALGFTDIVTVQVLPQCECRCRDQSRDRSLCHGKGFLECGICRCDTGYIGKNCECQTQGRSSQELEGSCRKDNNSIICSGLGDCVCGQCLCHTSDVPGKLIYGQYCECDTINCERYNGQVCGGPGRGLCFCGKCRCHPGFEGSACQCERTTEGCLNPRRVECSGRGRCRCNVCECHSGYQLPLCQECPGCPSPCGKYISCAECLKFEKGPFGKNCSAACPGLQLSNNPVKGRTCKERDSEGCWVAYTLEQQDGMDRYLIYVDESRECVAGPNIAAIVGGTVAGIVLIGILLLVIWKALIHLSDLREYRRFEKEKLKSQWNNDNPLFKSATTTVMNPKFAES

pIC50 (human LFA-1): ~7.52
SMILES: CNC(=O)[C@H](Cc1ccc2ccccc2c1)N1CCC(=O)N(Cc2cnc3ccccc3c2)[C@@H](CC(C)C)C1=O [Example 1, 1H-1,4-Diazepine-1-acetamide, hexahydro-N-methyl-3-(2-methylpropyl)-α-[(2-naphthalenyl)methyl]-2,5-dioxo-4-[(3-quinolinyl)methyl]-, (αS,3S)-]
inhibition of knee swelling [1]: inhibits knee swelling
histological damage to the knee ([1]; day 14 histology): significantly reduces the histological damage to the knee
inhibition of paw swelling (carrageenan paw swelling): inhibits paw swelling
